Experimental data reported in patent publication US20110065675A1, “AZO DYE RELATED SMALL MOLECULE MODULATORS OF PROTEIN-PROTEIN INTERACTIONS” (University of Miami, priority 2008, published 2011).

Experiments:
human CD19+ B cells = assay: Inhibition of CD154-induced human B-cell proliferation (BrdU ELISA); type: cell-based
Text: CD40 stimulation is an important proliferation signal for human B cell proliferation (Fecteau et al., “CD40 stimulation of human peripheral B lymphocytes: distinct response from naive and memory cells. J. Immunol., vol. 171, pp. 4621-4629, 2003; Wiesner et al., “Conditional immortalization of human B cells by CD40 ligation,” PLoS ONE, vol. 3, pp. e1464, 2008), and soluble CD154 (CD40 ligand) can dose-dependently induce the proliferation of human CD19^+ B cells as measured by standard proliferation .assays. […]
The detailed procedure is as follows: Frozen MPB CD19^+ B lymphocytes (approximately 10^6 cells per vial) were obtained from StemCells Technologies (Vancouver, Canada), thawed in a 37° C. water bath until no crystal piece was left, and the cell suspension was transferred to a 50 mL conical tube. […] This was repeated, the cells were counted, and the concentration of viable cells was adjusted to approximately 1×10^6 cells/mL. […] A colorimetric cell proliferation ELISA BrdU from Roche Applied Science (Indianapolis, Ind.) was used as immunoassay for quantification of cell proliferation based on the measurement of BrdU incorporation during DNA replication. […]

[1] = biological target: P2 (ATP/UTP purine receptor); settings: read-out: IC50, P2 antagonist; cited from earlier work

Compound	IC50 (human CD19+ B cells; Homo sapiens, B-cell, CD19+ B cells, 48 h + 48 h BrdU)	IC50 [1]	Inhibition of CD154-induced B-cell proliferation (human CD19+ B cells)
Cc1ccc(C(=O)Nc2ccc(S(=O)(=O)O)c3cc(S(=O)(=O)O)cc(S(=O)(=O)O)c23)cc1NC(=O)c1cccc(NC(=O)Nc2cccc(C(=O)Nc3cc(C(=O)Nc4ccc(S(=O)(=O)O)c5cc(S(=O)(=O)O)cc(S(=O)(=O)O)c45)ccc3C)c2)c1 [Suramin, reference compound]	50 to 100 µM	5 to 10 µM	–
O=C([O-])C1=NN(c2ccc(S(=O)(=O)[O-])cc2)C(=O)C1N=Nc1ccc(S(=O)(=O)[O-])cc1.[Na+].[Na+].[Na+] (stereo not drawn) [Tartrazine (FD&C yellow 5), Tartrazine, reference compound]	–	–	no proliferation inhibiting activity
